In US8084645B2, “4-phenylamino-benzaldoxime derivatives and uses thereof as mitogen-activated protein kinase kinase (MEK) inhibitors” (Chugai Seiyaku Kabushiki Kaisha, priority 2003, dated 2011):
In brackets after ≈: the same amount, converted by molar mass. Where two headings read alike, the source gives them in different places.

Legend:
[1] = tested on: Human colon cancer cell line HT-29; experiment: Determination of the activity of inhibiting cell proliferation (Cell Counting Kit-8); format: cell-based; settings: HT-29, 96 h, HT29, 2,000 cells/well, incubated four days, read-out: Cell proliferation inhibitory activity (HT29) IC50
Experimental: Human colon cancer cell line HT-29, obtained from American Type Culture Collection (VA, USA), and human non-small cell lung cancer cell line QG56, obtained from Immuno-Biological Laboratories Co., Ltd., were plated at 2,000 cells/well in a 96-well culture plate, and incubated for four days after addition of a MEK inhibitor of a given concentration.

[2] = Determination of stability against mouse liver microsomes; format: in vitro ADME; settings: mouse liver microsomes 1 mg protein/mL, 2 mM NADPH, pH 7.4, 37 C; read-out: Stability against mouse liver microsome NADPH+ T1/2
Experimental: (§1) The enzyme reaction was quenched with three volumes of acetonitrile, and the reaction mixture was centrifuged at 1,500 rpm for ten minutes to provide a supernatant as a sample to be measured. Stability against mouse liver microsomes was measured using HPLC/MS to determine the compounds in the sample.

[3] = Determination of stability against human liver microsomes; format: in vitro ADME; settings: human liver microsomes 1 mg protein/mL, 2 mM NADPH, pH 7.4, 37 C; read-out: Stability against human liver microsome NADPH+ T1/2
Experimental: as §1, with “human” for “mouse”

[4] = Determination of water solubility (equilibrium stirring method); format: physicochemical; settings: for solubility at 2 h: aqueous buffer, thermodynamic from solid, read-out: Water solubility (LySA PH 6.5)
Experimental: The vessels were sealed, and the contents were sonicated at room temperature (20° C.) for ten minutes, and then stirred with a stirrer for two hours. After reaching solution equilibrium, the solution was separated with a membrane filter, and the solute concentration was determined using HPLC.

MEK = MEK (Homo sapiens, UniProt Q02750); experiment: Determination of MEK inhibitory activities (Raf-1 kinase cascade assay, MBP phosphorylation, 33P-ATP)
Sequence of MEK (Q02750 whole entry): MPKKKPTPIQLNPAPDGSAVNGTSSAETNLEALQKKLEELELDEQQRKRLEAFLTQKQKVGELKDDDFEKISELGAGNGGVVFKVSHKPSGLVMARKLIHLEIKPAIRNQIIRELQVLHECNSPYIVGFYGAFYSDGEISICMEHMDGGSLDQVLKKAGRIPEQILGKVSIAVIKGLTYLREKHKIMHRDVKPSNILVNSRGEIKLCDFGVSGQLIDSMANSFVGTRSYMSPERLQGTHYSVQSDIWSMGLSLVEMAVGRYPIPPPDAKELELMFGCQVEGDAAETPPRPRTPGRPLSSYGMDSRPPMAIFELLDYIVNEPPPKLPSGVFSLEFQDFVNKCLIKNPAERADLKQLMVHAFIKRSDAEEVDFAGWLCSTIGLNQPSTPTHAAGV
From the text: The radioisotope used was [γ^33P]-ATP (Amersham Biosciences, K.K.).

[5] = 50 mM phosphate buffer pH 6.5, room temperature (20 C)

| SMILES | IC50 [1] [nM] | half-life [2] [h] | half-life [3] [h] | solubility at 2 h [4, 5] [µM] | IC50 (MEK) [nM] | Water solubility (LySA PH 6.5) [4, 5] [µM] | solubility at 2 h ([4]; phosphate buffer, 20 °C, at pH 6.08) [µM] | solubility at 2 h ([4]; phosphate buffer, 20 °C, at pH 6.87) [µM] |
| --- | --- | --- | --- | --- | --- | --- | --- | --- |
| O=C(NOCC(O)CO)c1cc(/C=N\OCCO)c(F)c(F)c1Nc1ccc(I)cc1F (racemic) [Compound 58, dl-(Z)—N-(2,3-dihydroxy-propoxy)-3,4-difluoro-2-(2-fluoro-4-iodo-phenylamino)-5-[(2-hydroxy-ethoxyimino)-methyl]-benzamide] | 37 | 0.79 | 0.91 | 127 (≈ 72.3 µg/mL) | 27 | – | – | – |
| O=C(NOCCO)c1cc(/C=N/OCCO)c(F)c(F)c1Nc1ccc(I)cc1F [Compound 1, (E)-3,4-difluoro-2-(2-fluoro-4-iodo-phenylamino)-N-(2-hydroxy-ethoxy)-5-[(2-hydroxy-ethoxyimino)-methyl]-benzamide] | 80 | 3.94 | 1.08 | – | 100 | 8.3 | – | – |
| C#Cc1ccc(Nc2c(C(=O)NOCCO)cc(/C=N/OCCO)c(F)c2F)c(F)c1 [Compound 2, (E)-2-(4-ethynyl-2-fluoro-phenylamino)-3,4-difluoro-N-(2-hydroxy-ethoxy)-5-[(2-hydroxy-ethoxyimino)-methyl]-benzamide] | 150 | 2.25 | 1.34 | – | 240 | 415 | – | – |
| O=C(NOCCO)c1cc(/C=N/O)c(F)c(F)c1Nc1ccc(I)cc1F [Compound 3, (E)-3,4-difluoro-2-(2-fluoro-4-iodo-phenylamino)-N-(2-hydroxy-ethoxy)-5-(hydroxyiminomethyl)-benzamide] | 65 | 0.97 | 1.55 | 6.4 (≈ 3.17 µg/mL) | 78 | – | – | – |
| O=C(NOCCO)c1cc(/C=N/OCCCO)c(F)c(F)c1Nc1ccc(I)cc1F [Compound 4, (E)-3,4-Difluoro-2-(2-fluoro-4-iodo-phenylamino)-N-(2-hydroxy-ethoxy)-5-[(3-hydroxy-propoxyimino)-methyl]-benzamide] | 45 | > 6 | > 6 | – | 69 | – | 3.8 (≈ 2.1 µg/mL) | – |
| C#Cc1ccc(Nc2c(C(=O)NOCCO)cc(/C=N/OCCCO)c(F)c2F)c(F)c1 [Compound 5, (E)-2-(4-Ethynyl-2-fluoro-phenylamino)-3,4-Difluoro-N-(2-hydroxy-ethoxy)-5-[(3-hydroxy-propoxyimino)-methyl]-benzamide] | 170 | > 6 | 4.12 | – | 150 | – | – | 426 (≈ 192 µg/mL) |
| CC(O)CO/N=C/c1cc(C(=O)NOCCO)c(Nc2ccc(I)cc2F)c(F)c1F (stereo not drawn) [Compound 15, (E)-3,4-difluoro-2-(2-fluoro-4-iodo-phenylamino)-N-(2-hydroxy-ethoxy)-5-[(2-hydroxy-propoxyimino)-methyl]-benzamide] | 137 | 0.978 | 2.67 | 8 (≈ 4.43 µg/mL) | 110 | – | – | – |
| CN(C)CCO/N=C/c1cc(C(=O)NOCCO)c(Nc2ccc(I)cc2F)c(F)c1F [Compound 16, (E)-5-[(2-dimethylamino-ethoxyimino)-methyl]-3,4-difluoro-2-(2-fluoro-4-iodo-phenylamino)-N-(2-hydroxy-ethoxy)-benzamide] | 210 | 3.08 | > 6 | 2400 (≈ 1360 µg/mL) | 244 | – | – | – |
| O=C(NOCCO)c1cc(/C=N/OCCN2CCOCC2)c(F)c(F)c1Nc1ccc(I)cc1F [Compound 18, (E)-3,4-difluoro-2-(2-fluoro-4-iodo-phenylamino)-N-(2-hydroxy-ethoxy)-5-[(2-morpholin-4-yl-ethoxyimino)-methyl]-benzamide] | 140 | > 6 | > 6 | 164 (≈ 99.8 µg/mL) | 262 | – | – | – |
| O=C(NOCCO)c1cc(/C=N/OCCN2CCC(O)CC2)c(F)c(F)c1Nc1ccc(I)cc1F [Compound 19, (E)-3,4-difluoro-2-(2-fluoro-4-iodo-phenylamino)-N-(2-hydroxy-ethoxy)-5-{[2-(4-hydroxy-piperidin-1-yl)-ethoxyimino]-methyl}-benzamide] | 750 | > 6 | > 6 | 2910 (≈ 1810 µg/mL) | 693 | – | – | – |
| O=C(NOCCO)c1cc(/C=N/OCCN2CCC[C@H]2CO)c(F)c(F)c1Nc1ccc(I)cc1F [Compound 20, (E)-3,4-difluoro-2-(2-fluoro-4-iodo-phenylamino)-N-(2-hydroxy-ethoxy)-5-{[2-((S)-hydroxymethyl-pyrrolidin-1-yl)-ethoxyimino]-methyl}-benzamide] | 643 | > 6 | > 6 | 1830 (≈ 1140 µg/mL) | 696 | – | – | – |
| O=C(NOCCO)c1cc(/C=N/OCCN2CCCC2)c(F)c(F)c1Nc1ccc(I)cc1F [Compound 21, (E)-3,4-difluoro-2-(2-fluoro-4-iodo-phenylamino)-N-(2-hydroxy-ethoxy)-5-[(2-pyrrolidin-1-yl-ethoxyimino)-methyl]-benzamide] | 651 | > 6 | > 6 | 1480 (≈ 879 µg/mL) | 802 | – | – | – |
| NCCO/N=C/c1cc(C(=O)NOCCO)c(Nc2ccc(I)cc2F)c(F)c1F [Compound 22, (E)-5-[(2-amino-ethoxyimino)-methyl]-3,4-difluoro-2-(2-fluoro-4-iodo-phenylamino)-N-(2-hydroxy-ethoxy)-benzamide] | 36 | > 6 | > 6 | 146 (≈ 78.6 µg/mL) | 75 | – | – | – |
| CC(=O)NCCO/N=C/c1cc(C(=O)NOCCO)c(Nc2ccc(I)cc2F)c(F)c1F [Compound 24, (E)-5-[(2-acetylamino-ethoxyimino)-methyl]-3,4-difluoro-2-(2-fluoro-4-iodo-phenylamino)-N-(2-hydroxy-ethoxy)-benzamide] | 86 | > 6 | > 6 | – | 48 | 16 | – | – |
| CC(=O)N(C)CCO/N=C/c1cc(C(=O)NOCCO)c(Nc2ccc(I)cc2F)c(F)c1F [Compound 25, (E)-5-{[2-(acetyl-methyl-amino)-ethoxyimino]-methyl}-3,4-difluoro-2-(2-fluoro-4-iodo-phenylamino)-N-(2-hydroxyethoxy)-benzamide] | 44 | 3.3 | 0.813 | 54 (≈ 32.1 µg/mL) | 30 | – | – | – |
| O=C(NOCCO)c1cc(/C=N/OCCN2CCNC2=O)c(F)c(F)c1Nc1ccc(I)cc1F [Compound 27, (E)-3,4-difluoro-2-(2-fluoro-4-iodo-phenylamino)-N-(2-hydroxy-ethoxy)-5-{[2-(2-oxo-imidazolidin-1-yl)-ethoxyimino]-methyl}-benzamide] | 69 | > 6 | 2.41 | 10 (≈ 6.07 µg/mL) | 203 | – | – | – |
| O=C(NOCCO)c1cc(/C=N/OCc2ncc[nH]2)c(F)c(F)c1Nc1ccc(I)cc1F [Compound 28, (E)-3,4-difluoro-2-(2-fluoro-4-iodo-phenylamino)-N-(2-hydroxy-ethoxy)-5-[(1H-imidazol-2-ylmethoxyimino)-methyl]-benzamide] | 50 | > 6 | > 6 | < 31.3 | 20 | – | – | – |
| C#Cc1ccc(Nc2c(C(=O)NOCCO)cc(/C=N/OCCC(=O)NC)c(F)c2F)c(F)c1 [Compound 41, (E)-2-(4-ethynyl-2-fluoro-phenylamino)-3,4-difluoro-N-(2-hydroxy-ethoxy)-5-[(2-methylcarbamoyl-ethoxyimino)-methyl]-benzamide] | 186 | 3.54 | > 6 | 347 (≈ 166 µg/mL) | 64.7 | – | – | – |
| CN(C)C(=O)CCO/N=C/c1cc(C(=O)NOCCO)c(Nc2ccc(I)cc2F)c(F)c1F [Compound 42, (E)-3,4-difluoro-2-(2-fluoro-4-iodo-phenylamino)-N-(2-hydroxy-ethoxy)-5-[dimethylcarbamoylethoxyimino-methyl]-benzamide] | 91 | > 6 | 1.74 | 29 (≈ 17.2 µg/mL) | 56 | – | – | – |
| CNC(=O)CO/N=C/c1cc(C(=O)NOCCO)c(Nc2ccc(I)cc2F)c(F)c1F [Compound 43, (E)-3,4-difluoro-2-(2-fluoro-4-iodo-phenylamino)-N-(2-hydroxy-ethoxy)-5-[methylcarbamoylmethoxyimino-methyl]-benzamide] | 77 | > 6 | > 6 | 57 (≈ 32.3 µg/mL) | 119 | – | – | – |
| CNC(=O)CCCO/N=C/c1cc(C(=O)NOCCO)c(Nc2ccc(I)cc2F)c(F)c1F [Compound 44] | 328 | > 6 | > 6 | 6 (≈ 3.57 µg/mL) | 25 | – | – | – |
